Assay results taken from article PMC10482825 (Scientific Reports, 2023).
Values after ≈ are worked out from the molar mass of the structure shown. Values joined by “and” are separate entries in the source; they are usually repeats but may differ in a detail not shown here. Equal entries are not always repeated. Where a SMILES comes first, the peptide text is derived from it.

Tests used:
S. enterica [1] = type: cell-based, Salmonella enterica (ATCC, 14028); conditions: micro-broth dilution, 3 h peptide treatment then MHB 18 h, 37 °C, OD 600 nm
Description: (§1) The microbial strains used in this study were Bacillus subtilis (ATCC, 11774), Candida albicans (TIMM, 1768), Enterococcus faecalis (ATCC, 33186), Escherichia coli (ATCC, 11775), Klebsiella pneumoniae (ATCC, 13883), Methicillin-resistant Staphylococcus aureus (ATCC, BAA-41), Pseudomonas aeruginosa (ATCC, 10145), Salmonella enterica (ATCC, 14028), Serratia marcescens (ATCC, 13880), Staphylococcus aureus (ATCC, 25923) and Vibrio parahaemolyticus (ATCC, 17802). All microbial strains were cultivated overnight at 37 °C and 200 rpm, then subcultured and incubated for 3 h under the same incubation conditions to obtain the mid-logarithmic growth phase. The cultivated cells were washed twice with 10 mM Tris–HCl containing 5 mM D-glucose at pH 7.4 and suspended in the same buffer to be used in different assays, as previously described.
(§2) As a conclusive quantitative assessment, broth microtiter assay was used to determine the MIC values of each cryptide against B. subtilis, MRSA, S. enterica, P. aeruginosa, V. parahaemolyticus and C. albicans by following the guidelines of the Clinical and Laboratory Standards Institute (CLSI)[67], with slight modifications. Eighty microliters of 5 × 10^4 CFU/ml of each pathogen were dispensed into a 96-well polypropylene microtiter plate. The wells were then treated with 20 µl of serially diluted cryptides for 3 h at 37 °C. Gentamicin was used for positive controls at 0.2 mg/ml while an equivalent volume of acidified water was used for negative controls. The plates were then topped up with a final concentration of 1 × Mueller Hinton Broth (MHB) and incubated for 18 h under the same incubation conditions. MIC was detected as the lowest concentration of each cryptide that prevents the optically detectable microbial growth at OD = 600 nm.

Caco-2 = type: cell-based, human; conditions: 24 h, serum-free medium, MTT, 37 °C, 5% CO2; mean ± SD
Experimental: (§3) The used mammalian cell lines in our study were colorectal adenocarcinoma (Caco2, ATCC-HTB-37), colorectal carcinoma (HCT 116, ATCC-CCL-247), lung carcinoma (A549, ATCC- CCL-185), cervical cancer cells (HeLa, ATCC-CCL-2), neuroblastoma (SH-SY5Y, ATCC- CRL-2266), rhabdomyosarcoma (RD, ATCC- CCL-136) and human embryonic kidney cells (HEK 293, ATCC- CRL-1573). All the cells were maintained into Dulbecco’s Modified Eagle’s Medium (DMEM) supplemented with 10% heat-inactivated fetal bovine serum, 2 mM L-Glutamine, 100 U/ml penicillin–streptomycin (Pen/Strep) at 37 °C in 5% CO2 humidified incubator.
(§4) First, the cytotoxic effect of 24 h serum deprivation on all the selected cell lines was evaluated by MTT assay, following standard protocols. Briefly, cells were seeded and maintained at 37 °C and 5% CO2 in 24-well plates until they reached 75–80% confluency (zero time). Following washing twice with 1X PBS, cells were incubated in a serum-free medium for 24 h, under the same incubation conditions. The cell viability percentages were calculated and compared to zero time as 100% viability to nullify any possible effects of serum deprivation. Thence, the cell viability percentage of each cell line in response to 24 h treatment with different concentrations of each cryptide in serum-free medium was calculated. […] All the measured cell viability percentages were normalised against the corresponding negative controls.

HeLa = type: cell-based, human; conditions: 24 h, serum-free medium, MTT, 37 °C, 5% CO2; mean ± SD
Experimental: as §3, §4

[2] = test system: S. enterica mature biofilm; test: Antibiofilm microtiter plate assay (mature biofilm, crystal violet); type: cell-based, Salmonella enterica (ATCC, 14028); conditions: for Minimal biofilm eradication concentration (MBEC) S. enterica: tested 12.5-200 µM
Experimental: The antibiofilm activities of the selected cryptides against S. enterica and MRSA mature biofilms were examined by microtiter plate assay as previously described, with slight modification. During the mid-logarithmic phase, S. enterica and MRSA were suspended at the density of 1.7 × 10^8 CFU/ml in MHB. Then 100 µl of each bacterial suspension was dispensed into a vinyl 96 U-shaped-well plate and incubated overnight at 37 °C. The mature biofilms were washed with 10 mM Tris–HCl containing 5 mM D-glucose at pH 7.4 and treated for 8 h with 100 µl of two-fold serially diluted cryptides, under the same incubation conditions. A sterile MHB medium was used as the positive control while an equivalent volume of acidified water was used to treat the negative controls. The treated biofilms were washed twice with the same washing buffer and stained with 0.1% crystal violet for 15 min followed by rinsing with sterile distilled water twice and then dried for 30 min at 37 °C. The stain was dissolved with 33% acetic acid and transferred to an optically clear 96-well flat bottom plate which was then measured at 600 nm.
Table S.4 Antibiofilm activities of the selected Cryptides against S. enterica and MRSA. Microbial cells were suspended at 1.7 X 10^8 CFU/ml density, during the mid-logarithmic phase in MHB. Then, 96 U-shaped -well plates were inoculated with 100 µl of microbial suspension and incubated for 48 h at 37 °C. The formed biofilms were washed with 10 mM Tris-HCl and treated with 100 µl of different concentrations of each peptide for 24 h. The treated biomasses were washed and fixed with methanol for 15 min at -20 °C before staining with 0.1 % crystal violet. The stained biofilms were dissolved in 100 µl of 33 % acetic acid and the quantities of crystal violet stains were determined by measuring absorbance at 600 nm as an indicator of the remaining biomass after treatment. Untreated cells were used as negative control [indicating 100 % biofilm integrity] while the sterile medium was used as a positive control [indicating 0 % biofilm integrity].
S. enterica MRSA S. enterica MRSA S. enterica MRSA S. enterica MRSA S. enterica MRSA

MRSA = type: cell-based, Methicillin-resistant Staphylococcus aureus (ATCC, BAA-41); conditions: micro-broth dilution, 3 h peptide treatment then MHB 18 h, 37 °C, OD 600 nm
Description: as §1, §2

S. enterica [3] = type: cell-based, Salmonella enterica (ATCC, 14028); conditions: 20 µl of wells without growth on agar, 18 h, 37 °C
P. aeruginosa = type: cell-based, Pseudomonas aeruginosa (ATCC, 10145); conditions: 20 µl of wells without growth on agar, 18 h, 37 °C
B. subtilis = type: cell-based, Bacillus subtilis (ATCC, 11774); conditions: 20 µl of wells without growth on agar, 18 h, 37 °C
HEK-293 = test: MTT cytotoxicity on normal cells; type: cell-based, human; conditions: 25 µM (highest tested concentration), 24 h, serum-free medium
Experimental: as §3, §4

C. albicans [4] = type: cell-based, Candida albicans (TIMM, 1768); conditions: 20 µl of wells without growth on Sabouraud 4% Dextrose Agar, 18 h, 37 °C
C. albicans [5] = type: cell-based, Candida albicans (TIMM, 1768); conditions: micro-broth dilution, 3 h peptide treatment then MHB 18 h, 37 °C, OD 600 nm
Description: as §1, §2

[6] = crystal violet, absorbance 600 nm, mean ± SD

| Compound | MIC (µM) S. enterica (S. enterica [1]) [µM] | IC50 (Caco-2) [µM] | IC50 (HeLa) [µM] | Minimal biofilm eradication concentration (MBEC) S. enterica [2] [µM] | MIC (µM) MRSA (MRSA) [µM] | MBC (µM) S. enterica (S. enterica [3]) [µM] | MBC (µM) P. aeruginosa (P. aeruginosa) [µM] | MBC (µM) B. subtilis (B. subtilis) [µM] | Cell death of HEK-293 (HEK-293) | MFC (µM) C. albicans (C. albicans [4]) [µM] | MIC (µM) C. albicans (C. albicans [5]) [µM] | Biofilm eradication S. enterica, 12.5 µM [2, 6] [%] | Biofilm eradication S. enterica, 25 µM [2, 6] [%] | Biofilm eradication S. enterica, 50 µM [2, 6] [%] | Biofilm eradication S. enterica, 100 µM [2, 6] [%] | Biofilm eradication S. enterica, 200 µM [2, 6] |
| --- | --- | --- | --- | --- | --- | --- | --- | --- | --- | --- | --- | --- | --- | --- | --- | --- |
| CC(C)C[C@H](NC(=O)[C@H](CCCNC(=N)N)NC(=O)[C@H](Cc1c[nH]c2ccccc12)NC(=O)[C@H](CCCNC(=N)N)NC(=O)[C@H](CC(C)C)NC(=O)[C@@H](N)Cc1ccccc1)C(=O)N[C@@H](CCCCN)C(=O)N[C@@H](Cc1ccccc1)C(=O)N[C@@H](CCCCN)C(=O)N[C@@H](CO)C(=O)N[C@@H](CCCCN)C(=O)N[C@H](C(=O)N[C@@H](Cc1c[nH]c2ccccc12)C(=O)N[C@@H](CS)C(=O)N1CCC[C@H]1C(=O)O)C(C)C [AD7] (H-FLRWRLKFKSKVWCP-OH) | 0.78 (≈ 1.56 µg/mL) | 11.2 ± 0.7 | 101.5 ± 0.9 | 100 | 3.12 (≈ 6.22 µg/mL) | 0.78 (≈ 1.56 µg/mL) | 25 (≈ 49.9 µg/mL) | 0.39 (≈ 0.778 µg/mL) | less than 10% | 6.25 (≈ 12.5 µg/mL) | 1.56 (≈ 3.11 µg/mL) |  |  |  |  |  |
| RHCLRSKRPPNVCPH [AD4, cationic cryptide from P. vannamei precursor DN34505 (Pl-crustin 2), chemically synthesised] | 3.12 | 5.4 ± 0.7 | 10.8 ± 0.3 |  | 6.25 | 3.12 | > 50 | 1.56 | less than 10% | 25 | 25 | 6.16 ± 2.7 | 12.58 ± 1.9 | 30.41 ± 1.9 | 45.13 ± 2 | 80.63 ± 1% and 80.63% |
| CSCC[C@H](NC(=O)[C@H](CCCCN)NC(=O)CNC(=O)[C@H](CCCCN)NC(=O)[C@H](Cc1ccc(O)cc1)NC(=O)[C@H](CC(N)=O)NC(=O)[C@H](CC(C)C)NC(=O)[C@H](CCC(N)=O)NC(=O)[C@H](CC(C)C)NC(=O)[C@@H](N)CCCNC(=N)N)C(=O)N[C@@H](Cc1c[nH]c2ccccc12)C(=O)N[C@@H](CS)C(=O)N1CCC[C@H]1C(=O)NCC(=O)N[C@@H](Cc1c[nH]c2ccccc12)C(=O)O [AD11] (H-RLQLNYKGKMWCPGW-OH) | 1.56 (≈ 2.93 µg/mL) | 26.8 ± 0.4 | 16.8 ± 0.6 | 200 | 6.25 (≈ 11.8 µg/mL) | 1.56 (≈ 2.93 µg/mL) | > 50 | 0.78 (≈ 1.47 µg/mL) | less than 10% | 25 (≈ 47 µg/mL) | 25 (≈ 47 µg/mL) |  |  |  |  |  |
